Test results: the supplement of paper PMC10307832

Tests used:
Assay in all cases: relative viability (nuclei count vs DMSO), 5 days (fraction); higher = more cells survive
[1] = compound: CC1=C(C(=O)N2C=CSC2=N1)CCN3CCC(=C(C4=CC=CC=C4)C5=CC=C(C=C5)F)CC3 + CC(=O)c1c(C)c2cnc(Nc3ccc(N4CCNCC4)cn3)nc2n(C2CCCC2)c1=O [Palbociclib] (partner 0.5 µM)
In short: (§1)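 Cells from lung cancer lines were seeded into 1536-well plates and, one day later, dosed by pin tool. Treatments were either a single drug or a fixed dose of an anchor drug with five library-drug doses (not always all listed) in √10 steps. After 5 days, nuclei were stained in a one-step fixation (final 0.05% Triton X-100, 1% formaldehyde, 1 ug/ml Hoechst) and counted on 4× images, and relative viability is the treated-to-vehicle nuclei ratio, as the median of duplicate plates.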

[2] = compound: CC1=C(C(=O)N2C=CSC2=N1)CCN3CCC(=C(C4=CC=CC=C4)C5=CC=C(C=C5)F)CC3 + Nc1nc2[nH]cc(CCc3ccc(C(=O)N[C@@H](CCC(=O)O)C(=O)O)cc3)c2c(=O)[nH]1 [Pemetrexed] (partner 0.2 µM)
In short: as §1

[3] = compound: CC1=C(C(=O)N2C=CSC2=N1)CCN3CCC(=C(C4=CC=CC=C4)C5=CC=C(C=C5)F)CC3 + Cc1nc(NC(=O)N2CCC[C@H]2C(N)=O)sc1-c1ccnc(C(C)(C)C(F)(F)F)c1 [Alpelisib] (partner 2 µM)
In short: as §1

[4] = compound: CC1=C(C(=O)N2C=CSC2=N1)CCN3CCC(=C(C4=CC=CC=C4)C5=CC=C(C=C5)F)CC3 + O=C(c1cc(Cc2n[nH]c(=O)c3ccccc23)ccc1F)N1CCN(C(=O)C2CC2)CC1 [Olaparib] (partner 8 µM)
In short: as §1

## PC-14
[1]; first compound 0.08 µM
  relative viability: 0.358
[1]; first compound 0.253 µM
  relative viability: 0.574
[1]; first compound 0.8 µM
  relative viability: 0.455
[1]; first compound 2.53 µM
  relative viability: 0.622
[1]; first compound 8 µM
  relative viability: 0.328
[2]; first compound 0.08 µM
  relative viability: 0.153
[2]; first compound 0.253 µM
  relative viability: 0.138
[2]; first compound 0.8 µM
  relative viability: 0.133
[2]; first compound 2.53 µM
  relative viability: 0.153
[2]; first compound 8 µM
  relative viability: 0.137
[3]; first compound 0.08 µM
  relative viability: 0.738
[3]; first compound 0.253 µM
  relative viability: 1.04
[3]; first compound 0.8 µM
  relative viability: 0.955
[3]; first compound 2.53 µM
  relative viability: 0.979
[3]; first compound 8 µM
  relative viability: 0.624
[4]; first compound 0.08 µM
  relative viability: 0.209
[4]; first compound 0.253 µM
  relative viability: 0.223
[4]; first compound 0.8 µM
  relative viability: 0.27
[4]; first compound 2.53 µM
  relative viability: 0.251
[4]; first compound 8 µM
  relative viability: 0.253

## RERF-LC-KJ
[1]; first compound 0.08 µM
  relative viability: 1.18
[1]; first compound 0.253 µM
  relative viability: 1.04
[1]; first compound 0.8 µM
  relative viability: 0.97
[1]; first compound 2.53 µM
  relative viability: 0.991
[1]; first compound 8 µM
  relative viability: 0.637
[2]; first compound 0.08 µM
  relative viability: 0.502
[2]; first compound 0.253 µM
  relative viability: 0.476
[2]; first compound 0.8 µM
  relative viability: 0.439
[2]; first compound 2.53 µM
  relative viability: 0.486
[2]; first compound 8 µM
  relative viability: 0.481
[3]; first compound 0.08 µM
  relative viability: 0.743
[3]; first compound 0.253 µM
  relative viability: 0.844
[3]; first compound 0.8 µM
  relative viability: 0.8
[3]; first compound 2.53 µM
  relative viability: 0.758
[3]; first compound 8 µM
  relative viability: 0.633
[4]; first compound 0.08 µM
  relative viability: 0.968
[4]; first compound 0.253 µM
  relative viability: 0.819
[4]; first compound 0.8 µM
  relative viability: 0.845
[4]; first compound 2.53 µM
  relative viability: 0.89
[4]; first compound 8 µM
  relative viability: 0.706

## SK-LU-1
[1]; first compound 0.08 µM
  relative viability: 0.378
[1]; first compound 0.253 µM
  relative viability: 0.375
[1]; first compound 0.8 µM
  relative viability: 0.406
[1]; first compound 2.53 µM
  relative viability: 0.416
[1]; first compound 8 µM
  relative viability: 0.36
[2]; first compound 0.08 µM
  relative viability: 1.12
[2]; first compound 0.253 µM
  relative viability: 0.942
[2]; first compound 0.8 µM
  relative viability: 0.995
[2]; first compound 2.53 µM
  relative viability: 1.13
[2]; first compound 8 µM
  relative viability: 0.597
[3]; first compound 0.08 µM
  relative viability: 1.24
[3]; first compound 0.253 µM
  relative viability: 0.925
[3]; first compound 0.8 µM
  relative viability: 1.13
[3]; first compound 2.53 µM
  relative viability: 1.33
[3]; first compound 8 µM
  relative viability: 0.826
[4]; first compound 0.08 µM
  relative viability: 0.442
[4]; first compound 0.253 µM
  relative viability: 0.45
[4]; first compound 0.8 µM
  relative viability: 0.459
[4]; first compound 2.53 µM
  relative viability: 0.429
[4]; first compound 8 µM
  relative viability: 0.402

## SK-MES-1
[1]; first compound 0.08 µM
  relative viability: 0.299
[1]; first compound 0.253 µM
  relative viability: 0.288
[1]; first compound 0.8 µM
  relative viability: 0.294
[1]; first compound 2.53 µM
  relative viability: 0.336
[1]; first compound 8 µM
  relative viability: 0.305
[2]; first compound 0.08 µM
  relative viability: 1.11
[2]; first compound 0.253 µM
  relative viability: 1.05
[2]; first compound 0.8 µM
  relative viability: 0.97
[2]; first compound 2.53 µM
  relative viability: 1.02
[2]; first compound 8 µM
  relative viability: 0.829
[3]; first compound 0.08 µM
  relative viability: 0.881
[3]; first compound 0.253 µM
  relative viability: 0.944
[3]; first compound 0.8 µM
  relative viability: 0.835
[3]; first compound 2.53 µM
  relative viability: 0.87
[3]; first compound 8 µM
  relative viability: 0.554
[4]; first compound 0.08 µM
  relative viability: 0.961
[4]; first compound 0.253 µM
  relative viability: 0.583
[4]; first compound 0.8 µM
  relative viability: 0.725
[4]; first compound 2.53 µM
  relative viability: 0.827
[4]; first compound 8 µM
  relative viability: 0.64

## SW 1573
[1]; first compound 0.08 µM
  relative viability: 0.346
[1]; first compound 0.253 µM
  relative viability: 0.359
[1]; first compound 0.8 µM
  relative viability: 0.407
[1]; first compound 2.53 µM
  relative viability: 0.382
[1]; first compound 8 µM
  relative viability: 0.286
[2]; first compound 0.08 µM
  relative viability: 0.998
[2]; first compound 0.253 µM
  relative viability: 0.854
[2]; first compound 0.8 µM
  relative viability: 0.786
[2]; first compound 2.53 µM
  relative viability: 0.933
[2]; first compound 8 µM
  relative viability: 0.578
[3]; first compound 0.08 µM
  relative viability: 0.829
[3]; first compound 0.253 µM
  relative viability: 0.829
[3]; first compound 0.8 µM
  relative viability: 0.739
[3]; first compound 2.53 µM
  relative viability: 0.657
[3]; first compound 8 µM
  relative viability: 0.469
[4]; first compound 0.08 µM
  relative viability: 0.502
[4]; first compound 0.253 µM
  relative viability: 0.323
[4]; first compound 0.8 µM
  relative viability: 0.465
[4]; first compound 2.53 µM
  relative viability: 0.625
[4]; first compound 8 µM
  relative viability: 0.357

## UMC-11
[1]; first compound 0.08 µM
  relative viability: 0.309
[1]; first compound 0.253 µM
  relative viability: 0.321
[1]; first compound 0.8 µM
  relative viability: 0.272
[1]; first compound 2.53 µM
  relative viability: 0.321
[1]; first compound 8 µM
  relative viability: 0.328
[2]; first compound 0.08 µM
  relative viability: 0.914
[2]; first compound 0.8 µM
  relative viability: 0.8
[2]; first compound 2.53 µM
  relative viability: 0.945
[2]; first compound 8 µM
  relative viability: 0.632
[3]; first compound 0.08 µM
  relative viability: 1.1
[3]; first compound 0.253 µM
  relative viability: 0.765
[3]; first compound 0.8 µM
  relative viability: 0.977
[3]; first compound 2.53 µM
  relative viability: 1.29
[3]; first compound 8 µM
  relative viability: 0.732
[4]; first compound 0.08 µM
  relative viability: 0.44
[4]; first compound 0.8 µM
  relative viability: 1.05
[4]; first compound 2.53 µM
  relative viability: 0.307
[4]; first compound 8 µM
  relative viability: 0.342
